Data as given in ChEMBL document CHEMBL1158968, “Novel cytotoxic principles of Formosan Ganoderma lucidum” (1991).
Converted amounts (≈) assume the structure as drawn.

Legend:
KB = test: Cytotoxicity against human KB cells after 4 days; format: functional; details: 96 h, read-out: ED50 (the source's name)
[1] = Cytotoxicity against human PLC/PRF/5 cells after 4 days; format: functional; details: PLC-PRF-5, 96 h, read-out: ED50 (the source's name)

C/C(=C\CC[C@@H](C)[C@H]1CC[C@@]2(C)C3=C(C(=O)C[C@]12C)[C@@]1(C)CC[C@H](O)C(C)(C)[C@@H]1CC3)CO [2H-GANODERIC ALDEHYDE A]
EC50 (KB): 8.27 µg/mL (≈ 18.1 µM)
EC50 [1]: 10.7 µg/mL (≈ 23.5 µM)

CC(C)[C@@H](C)/C=C/[C@@H](C)[C@H]1CC[C@@H]2[C@]1(C)CC[C@H]1[C@]23C=C[C@]2(C[C@@H](O)CC[C@]12C)OO3 [ERGOSTEROL PEROXIDE]
EC50 (KB): 9.79 µg/mL (≈ 22.8 µM)
EC50 [1]: 11 µg/mL (≈ 25.6 µM)

C/C(C=O)=C\CC[C@@H](C)[C@H]1CC[C@@]2(C)C3=C(C(=O)C[C@]12C)[C@@]1(C)CC[C@H](O)C(C)(C)[C@@H]1CC3 [GANODERIC ALDEHYDE A]
EC50 (KB): 1.25 µg/mL (≈ 2.75 µM)
EC50 [1]: 2.54 µg/mL (≈ 5.59 µM)
